In patent publication US10610522B2, “Methods for retreating irritable bowel syndrome (IBS)” (Salix Pharmaceuticals, Inc., priority 2014, dated 2020):

Legend:
d-IBS = experiment: Study of rifaximin BID doses vs placebo in subjects with d-IBS: adequate relief of IBS symptoms and bloating; assay type: in vivo, human; conditions: for Percentage of subjects with adequate relief of IBS symptoms / Percentage of subjects with adequate relief of bloating symptom: RFX 550 mg BID 14 d, at least 2 of final 3 weeks of treatment phase (Weeks 1-4); for Adequate relief of bloating, post treatment, Failures / Adequate relief of bloating, post treatment, Success / Adequate relief of bloating, post treatment, Failure: RFX 550 2w (N = 54); for Patients with adequate relief of bloating / Patients with adequate relief of global IBS symptoms: 550 mg BID 14 d
Description: This example relates to a study of rifaximin in subjects with d-IBS. […] There were two measures of efficacy assessed. Subjects were questioned on the relief of overall IBS symptoms and bloating. […] The analyses defined success as a “yes” response to questions regarding adequate relief.
All subpopulations in the study responded to therapy. Baseline severity was determined using 7-point Lickert scales during screening for Abdominal Pain/Discomfort and Bloating, and the number, type (normal, hard, loose) and urgency of bowel movements.
Duration of effect was assessed in a follow-up period. Subjects that responded in the 4 week treatment period were followed for an additional 3 months.
The effect of treatment on the percentage of subjects who reported adequate relief of IBS and bloating symptoms for at least two of the final three weeks during the treatment phase (Weeks 1 to 4) is shown in Tables 5-7 and FIGS. 4-6 below.
The study assessed the effect over 12 weeks of follow-up on long-term adequate relief. Subjects who had adequate relief by Week 4 and remained symptom-free at Week 5 were followed during the post-treatment phase and shown in FIGS. 1 and 2. Superiority to placebo was maintained during the 12 weeks post-treatment follow-up. Results for IBS symptoms were RFX 550 mg BID 62.3% versus placebo 49.2%, and RFX 550 mg BID 59.3% versus 50.9% for placebo for the symptom of bloating through week 16. In assessing the follow-up data, there was statistical significance (p<0.05) of bloating and IBS symptoms for RFX 550 mg BID versus placebo.
Two measures of efficacy were assessed independently. The first was the proportion of subjects who provided a ‘yes’ response to the weekly SGA question: “In the past 7 days, have you had adequate relief of your IBS symptoms? (yes/no)”. The second endpoint was the proportion of subjects who provide a ‘yes’ response to the weekly individual symptom question: “In the past 7 days, have you had adequate relief of your symptom of bloating? (yes/no)”. Durability was based on the proportion of subjects that had adequate relief over the entire treatment phase.
It is reported herein that the severity of baseline symptoms of abdominal pain and bloating influenced the response to rifaximin treatment. The co-primary endpoints in this analysis assessed weekly yes/no responses to questions regarding adequate relief of global IBS symptoms and IBS-associated bloating. Severity of baseline IBS symptoms was evaluated as a potential confounder of clinical response and was categorized as mild/moderate or severe based on a mean score of ≤4 vs. >4 (on a 7-point scale) for bloating and abdominal pain.
The Weekly yes/no responses to questions regarding adequate relief of global IBS symptoms and IBS-associated bloating were assessed. Clinical response was defined as adequate relief for 2 of the final 3 treatment weeks (wk 2, 3, or 4). Severity of baseline IBS symptoms was evaluated as a potential confounder of clinical response and was categorized as mild/moderate or severe based on a mean score of ≤4 versus >4 (on a 7-point scale (0=not bothersome; 6=very bothersome)) for bloating and abdominal pain.

cytochrome P450 2D6 = cytochrome P450 2D6 (Homo sapiens, UniProt P10635); experiment: In vitro cytochrome P450 inhibition; assay type: biochemical; conditions: 2 to 200 ng/mL
[1] = RFX 550 mg BID, responders followed through week 16
[2] = patients with mild/moderate abdominal pain at baseline
[3] = patients with mild/moderate bloating at baseline

cytochrome P450 2D6, sequence (P10635 whole entry): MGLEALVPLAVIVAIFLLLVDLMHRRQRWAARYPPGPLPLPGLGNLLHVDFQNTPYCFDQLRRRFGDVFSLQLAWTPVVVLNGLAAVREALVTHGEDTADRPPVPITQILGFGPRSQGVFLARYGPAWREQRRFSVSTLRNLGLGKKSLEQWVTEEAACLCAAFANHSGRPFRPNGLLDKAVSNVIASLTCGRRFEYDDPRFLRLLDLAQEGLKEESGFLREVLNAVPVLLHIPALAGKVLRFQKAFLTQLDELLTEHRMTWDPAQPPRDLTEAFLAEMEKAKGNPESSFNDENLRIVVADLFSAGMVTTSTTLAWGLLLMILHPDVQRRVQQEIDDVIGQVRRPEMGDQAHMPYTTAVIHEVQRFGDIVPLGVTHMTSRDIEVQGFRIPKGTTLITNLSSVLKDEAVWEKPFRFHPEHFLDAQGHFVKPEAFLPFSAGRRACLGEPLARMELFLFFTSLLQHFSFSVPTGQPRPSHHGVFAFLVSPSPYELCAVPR

CO[C@H]1/C=C/O[C@@]2(C)Oc3c(C)c(O)c4c(O)c(c5c(nc6cc(C)ccn65)c4c3C2=O)NC(=O)/C(C)=C\C=C\[C@H](C)[C@H](O)[C@@H](C)[C@@H](O)[C@@H](C)[C@H](OC(C)=O)[C@@H]1C [Rifaximin, (2S,16Z,18E,20S,21S,22R,23R,24R,25S,26S,27S,28E)-5,6,21,23,25 Pentahydroxy-27-methoxy-2,4,11,16,20,22,24,26-octamethyl-2,7-(epoxypentadeca-(1,11,13)trienimino) benzofuro (4,5-e) pyrido(1,2-a) benzimidazole-1,15(2H)-dione,25-acetate]
Adequate relief of bloating at end of treatment phase, Failure (d-IBS; Male, RFX 1100 2w): 16 (61.5%) n (%)
Adequate relief of bloating at end of treatment phase, Success (d-IBS; Male, RFX 1100 2w): 10 (38.5%) n (%)
Percentage of subjects with adequate relief of IBS symptoms (d-IBS; ITT): 52%
Percentage of subjects with adequate relief of bloating symptom (d-IBS; ITT): 46%
Percentage of subjects with adequate relief of IBS symptoms (d-IBS; ITT, listed as RFX): 52.4%
Percentage of subjects with adequate relief of bloating symptom (d-IBS; ITT, listed as RFX): 46.1%
Percentage of subjects with 0 weeks with adequate relief of IBS symptoms (d-IBS; RFX 550 mg BID, ITT): 33%
Percentage of subjects with 0 weeks with adequate relief of bloating symptoms (d-IBS; RFX 550 mg BID, ITT): 35%
Percentage of subjects with 1 week with adequate relief of IBS symptoms (d-IBS; RFX 550 mg BID, ITT): 11%
Percentage of subjects with 1 week with adequate relief of bloating symptoms (d-IBS; RFX 550 mg BID, ITT): 14%
Percentage of subjects with 2 weeks with adequate relief of IBS symptoms (d-IBS; RFX 550 mg BID, ITT): 15%
Percentage of subjects with 2 weeks with adequate relief of bloating symptoms (d-IBS; RFX 550 mg BID, ITT): 15%
Percentage of subjects with 3 weeks with adequate relief of IBS symptoms (d-IBS; RFX 550 mg BID, ITT): 23%
Percentage of subjects with 3 weeks with adequate relief of bloating symptoms (d-IBS; RFX 550 mg BID, ITT): 20%
Percentage of subjects with 4 weeks with adequate relief of IBS symptoms (d-IBS; RFX 550 mg BID, ITT): 16%
Percentage of subjects with 4 weeks with adequate relief of bloating symptoms (d-IBS; RFX 550 mg BID, ITT): 14%
Long-term adequate relief of IBS symptoms in post-treatment follow-up (d-IBS; [1]): 62.3%
Long-term adequate relief of the symptom of bloating in post-treatment follow-up (d-IBS; [1]): 59.3%
Adequate relief of bloating, post treatment, Failures (d-IBS; Week 6): 5 (9.3%) n (%)
Adequate relief of bloating, post treatment, Success (d-IBS; Week 6): 49 (90.7%) n (%)
Adequate relief of bloating, post treatment, Failures (d-IBS; Week 7): 9 (16.7%) n (%)
Adequate relief of bloating, post treatment, Success (d-IBS; Week 7): 45 (83.3%) n (%)
Adequate relief of bloating, post treatment, Failures (d-IBS; Week 8): 7 (13.0%) n (%)
Adequate relief of bloating, post treatment, Success (d-IBS; Week 8): 47 (87.0%) n (%)
Adequate relief of bloating, post treatment, Failures (d-IBS; Week 9): 15 (27.8%) n (%)
Adequate relief of bloating, post treatment, Success (d-IBS; Week 9): 39 (72.2%) n (%)
Adequate relief of bloating, post treatment, Failures (d-IBS; Week 10): 15 (27.8%) n (%)
Adequate relief of bloating, post treatment, Success (d-IBS; Week 10): 39 (72.2%) n (%)
Adequate relief of bloating, post treatment, Failures (d-IBS; Week 11): 19 (35.2%) n (%)
Adequate relief of bloating, post treatment, Success (d-IBS; Week 11): 35 (64.8%) n (%)
Adequate relief of bloating, post treatment, Failure (d-IBS; Week 12): 18 (33.3%) n (%)
Adequate relief of bloating, post treatment, Success (d-IBS; Week 12): 36 (66.7%) n (%)
Adequate relief of bloating, post treatment, Failure (d-IBS; Week 13): 21 (38.9%) n (%)
Adequate relief of bloating, post treatment, Success (d-IBS; Week 13): 33 (61.1%) n (%)
Adequate relief of bloating, post treatment, Failure (d-IBS; Week 14): 20 (37.0%) n (%)
Adequate relief of bloating, post treatment, Success (d-IBS; Week 14): 34 (63.0%) n (%)
Adequate relief of bloating, post treatment, Failure (d-IBS; Week 15): 23 (42.6%) n (%)
Adequate relief of bloating, post treatment, Success (d-IBS; Week 15): 31 (57.4%) n (%)
Adequate relief of bloating, post treatment, Failure (d-IBS; Week 16): 22 (40.7%) n (%)
Adequate relief of bloating, post treatment, Success (d-IBS; Week 16): 32 (59.3%) n (%)
Treatment effect, Bloating (d-IBS; aIBS): 31.4%*, 31.4%
Treatment effect, IBS Sx (d-IBS; aIBS): 31.4%*, 31.4%
Treatment effect, Bloating (d-IBS; dIBS only): 4.5%
Treatment effect, IBS Sx (d-IBS; dIBS only): 6.3%
Patients with adequate relief of bloating (d-IBS; [2]): 44%
Patients with adequate relief of global IBS symptoms (d-IBS; [2]): 50%
Patients with adequate relief of bloating (d-IBS; [3]): 47%
Patients with adequate relief of global IBS symptoms (d-IBS; [3]): 56%
Inhibition of cytochrome P450 2D6 (cytochrome P450 2D6): does not inhibit
